Source: patent publication EP1430019B1, “SPHINGOLIPIDS” (priority 2001, dated 2003)
pIC50: −log10 of the molar value. Each block holds one compound with its values, some of them ahead of it.

Assays:
sphingomyelinases = test: Sphingomyelinase inhibition, HL60 cell sonicate (Table 4, acid or neutral not stated); assay type: biochemical, Human
Protocol: N-hexyl-sphingosyl phosphorylcholine (AD-2144) was tested as to its inhibitory effect on sphingomyelinases, acidic (i.e., with an optimum at about pH 5) or neutral (with a pH optimum at about pH 7.4). For this purpose a sonicate of HL60 leukemic cells was used as enzyme source. Increasing concentrations of AD-2144 were dispersed by a mixture of fluorescent and non-fluorescent sphingomyelin (Bodipy-C12-SPM:SPM, 1:19), buffer and 0.25% Triton-X100 in a volume of 100 µl. For acid sphingomyelinase 0.4M acetate buffer pH 5.0 was used; for neutral sphingomyelinase 0.2M Tris buffer, pH 7.4 and 5 mM magnesium chloride. To 100 µl of these dispersions, 100 µl of HL60 cells sonicate were added. Incubation was 2-3 hours after which 0.8 ml of chloroform:methanol 2:1 were added, stirred and the lower, chloroform phase was collected, dried and applied to a thin layer chromatography plate. The plate was developed in a mixture of chloroform and methanol, 87:3. The fluorescence of the product, i.e., Bodipy-C12-ceramide, was quantified.
For acid sphingomyelinase as well as for neutral spingomyelinase: at 300 µM of AD-2144 there was a reduction of over 60% in Bodipy-C12-ceramide. […]

HL60 cells [1] = test: HL60 cell viability, viable cell count with trypan blue; assay type: cell-based, Human
Protocol: The effect of AD-2646 on cell viability was analyzed by measuring cell mortality (viable cell count) and/or total protein quantity. HL60 cells grown in RMPI plus 10% fetal calf serum, were incubated with increasing concentrations of (2R,3R)-2-(N-tetradecylamine)-1-(4-nitrophenyl)-1,3-propanediol (AD-2646) in 6- or 24-well dishes. […] After 2 days the cells were collected, washed twice with saline, treated with trypan blue and the number of living (non-blue) cells was counted. Fig. 1 indicates an IC50 value of 5 µM.
Kinetic of the observed killing effect of the AD-2646 compound was next examined. HL60 cells were incubated with 40 µM of AD-2646 for 1, 3, 5 and 7 hours. Already after 1 hour a reduction of 60% of the viable cell number was observed.

HL60 cells [2] = test: HL60 cell viability by total protein content (Bradford); assay type: cell-based, Human; settings: for pIC50: HL60, 2 days
Protocol: The effect of the AD-2646 compound on cell viability was further supported when the total protein content was quantified. HL60 cells were incubated as described above, with different concentrations of AD-2646. After 2 days the cells were collected, washed twice with saline, dispersed and following a short pulsing with a probe-sonicator their protein content was quantified by the Bradford procedure. Similarly to the viable cell counting results, the protein measurements indicated an IC50 value of 5 µM.
To analyze whether the AD-2646 compound may mediate its effect on cell viability and on total protein content, in cooperation with other compounds, the cooperative effect of this compound and Taxol was next evaluated. HL60 cells were incubated for two days with 4 µM AD2646 in the presence or absence of 2 ng Taxol. […]
(§1) The effect of different compounds of the invention on cell viability was next evaluated by measuring total cell protein quantity. Different cell lines were incubated for two days in the presence of increasing concentrations of the different compounds of the present invention.

TSU-PR1 cells = test: TSU-PR1 cytotoxicity by protein content; assay type: cell-based; settings: Homo sapiens, 48 h; TSU-PR1, two days, Fig. 2
Protocol: In order to evaluate the generality of AD-2646 compound effect on cell viability, other cell lines were subjected to the same procedures disclosed herein above.
TSU-PR1 cells (prostate cancer cells) were incubated for two days with increasing concentrations of AD-2646. The protein content measurements shown in Fig. 2 indicate that the cells were killed with an IC50 of 6-7 µM.

Bod3-SPM [3] = test: Sphingolipid metabolism from Bodipy-C3-ceramide in HL60 cells: Bod3-SPM; assay type: cell-based, Human; settings: for pIC50: Homo sapiens, HL-60, 3 h, HL60, 3 hours, 2.5 µM Bodipy-C3-ceramide, cell + medium, read-out: Bod 3-SPM (IC50 for reduction); for inhibition of Bod3-SPM (fluorescent image): HL60, 10 µM
Protocol: (§2) In order to examine the effect of the different compounds on sphingolipids metabolism, different cell lines were incubated with increasing concentrations of different compounds of the invention in the presence of 2.5 µM Bodipy-C3-ceramide that was added to the culture medium as a solution in dimethylsulfoxide (not exceeding 0.1% DMSO of the final volium). After 3 hours, cells and medium were collected and centrifuged. Cells were next extracted with chloroform- methanol containing 2% acetic acid 1:1 (by volume) and the medium was shaken with an equal volume of chloroform-methanol, 1:1 (by volume). The phases were separated by centrifugation and the lower chloroform phase was collected. The solvents were evaporated and applied to thin layer chromatography silica gel plates (Whatman 4865-821) with a concentrating zone.
(§3) Plates were developed as follows: For medium: in chloroform-methanol-H2O, 75:25:4 by volume. For cells: plates were first developed with chloroform-methanol, 9:1, then dried and re-run in chloroform-methanol: H2O, 65:35:4.
(§4) Standards of Bodipy-C3-ceramide: Bodipy-C3-glucosylceramide (Bod3-GC) and Bodipy C3 sphingomyelin (Bod3-SPM) were used as markers. The fluorescence of the respective Bod3-SPM and Bod3-GC spots was quantified using a Fuji FLA-2000 scanner.

Bod3-SPM [4] = test: Sphingolipid metabolism from Bodipy-C3-ceramide in TSU-PR1 cells: Bod3-SPM; assay type: cell-based; settings: Homo sapiens; TSU-PR1, 3 hours, Fig. 5; read-out: reduction of Bod3-SPM, IC50
Protocol: as §2, §3, §4
The effect of AD-2646 on sphingolipid metabolism was further examined using TSU-PR1 prostate cancer cells. […]

Swiss mice = test: In vivo toxicity, mice viability
Protocol: Six groups, each of 5 Swiss mice were injected, intra-peritoneally with solutions of AD-2646, at varying concentrations, each in a volume of 100 µl. Injections were performed on days 1, 2, 3, 4, and mice viability was tested (Table 5).

[5] = tested on: Leishmania major promastigote; test: Leishmania major promastigote cell count; assay type: cell-based; settings: promastigotes, 3 h, 27°C, cell counting; read-out: IC50 for cell reduction
Protocol: 2 × 10^5 Leishmania major promastigote cell, each in a volume of 100 µl were added to 100 µl medium (RPMI 1640 culture medium complemented with 20% FCS, 1% penicillin and 1% streptomycin) in 96-well plates containing zero and increasing concentrations of (2S,3R)-2-N-aminohexyl-1-(4-N-hexylamiuophenyl)-1,3-propanediol (AD-2663) in 2-fold serial dilution. After incubation period (3 h, 27°C) the number of cells was determined by counting on aliquot from each well on a Neulander cell counter under a microscope. The IC50 for cell reduction was 7 µM.

MCF7-AdrR = test: Cell viability by total cell protein quantity, MCF7-AdrR; assay type: cell-based; settings: Homo sapiens, 48 h, two days
Protocol: as §1

MCF7-NCi = test: Cell viability by total cell protein quantity, MCF7-NCi; assay type: cell-based; settings: Homo sapiens, 48 h, two days
Protocol: as §1

U937 cells = test: Apoptosis in U937 cells, DEVDase/caspase 3 activity kit; assay type: cell-based; settings: Homo sapiens, U-937; U937, 5 µM, 24 hours; read-out: number of apoptotic cells relative to control cells
Protocol: Myeloid, leukemic U937 cells were incubated for 24 hours in the absence or in the presence of 5 µM AD-2672 and AD-2665. Cells were then collected and the percent of apoptotic cells was determined using a kit quantifying the DEVDase, caspase 3 activity. The number of apoptotic cells incubated with AD-2672 exceeded 6-fold those in the control cells. Cells incubated with AD-2665 exceeded 2.8-fold those in the control cells.

Bod 3-SPM = test: Sphingolipid metabolism from Bodipy-C3-ceramide in MCF-NCi cells: Bod3-SPM; assay type: cell-based; settings: Homo sapiens, 3 hours, 2.5 µM Bodipy-C3-ceramide, read-out: Bod 3-SPM (IC50 for reduction)
Protocol: as §2, §3, §4

Bod 3-GC = test: Sphingolipid metabolism from Bodipy-C3-ceramide in MCF-NCi cells: Bod3-GC; assay type: cell-based; settings: Homo sapiens, 3 hours, 2.5 µM Bodipy-C3-ceramide, read-out: Bod 3-GC (IC50 for reduction)
Protocol: as §2, §3, §4

Bod3-GC = target: T1, Bod3-GC (Homo sapiens, UniProt Q16739); test: Sphingolipid metabolism from Bodipy-C3-ceramide in HL60 cells: Bod3-GC; assay type: cell-based; settings: HL60, 10 µM, Fig. 6
T1 sequence (Q16739 1-394): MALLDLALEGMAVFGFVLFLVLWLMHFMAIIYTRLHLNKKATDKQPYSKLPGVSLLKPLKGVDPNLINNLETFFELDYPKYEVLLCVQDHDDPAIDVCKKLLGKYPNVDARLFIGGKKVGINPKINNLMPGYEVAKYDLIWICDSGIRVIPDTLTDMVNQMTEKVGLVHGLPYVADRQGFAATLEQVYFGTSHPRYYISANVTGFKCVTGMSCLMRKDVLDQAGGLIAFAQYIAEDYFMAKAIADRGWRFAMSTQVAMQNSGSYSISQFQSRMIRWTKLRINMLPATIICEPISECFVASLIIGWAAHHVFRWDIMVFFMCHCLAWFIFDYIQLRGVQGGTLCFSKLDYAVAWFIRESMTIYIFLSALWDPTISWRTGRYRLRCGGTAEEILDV
Protocol: as §2, §3, §4

Compound: CCCCCCCCCCCCC/C=C/[C@H](O)[C@@H](COP(=O)([O-])OCC[N+](C)(C)C)NCCCCCC [AD-2144, N-hexyl-sphingosyl phosphorylcholine]
% reduction in Bodipy-C12-ceramide (sphingomyelinases; AD-2144 concentration 50µl): 30%
% reduction in Bodipy-C12-ceramide (sphingomyelinases; AD-2144 concentration 100µl): 44%
% reduction in Bodipy-C12-ceramide (sphingomyelinases; AD-2144 concentration 150µl): 65%
% reduction in Bodipy-C12-ceramide (sphingomyelinases; AD-2144 concentration 300µl): 82%

Compound: CCCCCCCCCCCCCCN[C@H](CO)[C@H](O)c1ccc([N+](=O)[O-])cc1 [AD-2646, (2R, 3R)-2-(N-tetradecylamine)-1-(4-nitrophenyl)-1,3-propanediol]
reduction of the viable cell number (HL60 cells [1]; HL60, 40 µM, after 1 hour): 60%
pIC50 (HL60 cells [1]; Homo sapiens, HL-60, 48 h, HL60, 2 days, trypan blue, Fig. 1): 5.30
Protein content (HL60 cells [2]; HL60, two days, 4 µM AD2646 alone): 174 µg
pIC50 (HL60 cells [2]; Homo sapiens, HL-60, 48 h): 5.30
pIC50 (TSU-PR1 cells): 5.15 to 5.22
pIC50 (Bod3-SPM [3]): ~5.22
pIC50 (Bod3-SPM [4]): ~5.30
No. of mice in each day (Swiss mice; 1mg/kg intra-peritoneally on days 1-4, group of 5, day 1): 5
No. of mice in each day (Swiss mice; 1mg/kg intra-peritoneally on days 1-4, group of 5, day 2): 5
No. of mice in each day (Swiss mice; 1mg/kg intra-peritoneally on days 1-4, group of 5, day 3): 5
No. of mice in each day (Swiss mice; 1mg/kg intra-peritoneally on days 1-4, group of 5, day 4): 5
No. of mice in each day (Swiss mice; 1mg/kg intra-peritoneally on days 1-4, group of 5, day 5): 5
No. of mice in each day (Swiss mice; 1mg/kg intra-peritoneally on days 1-4, group of 5, day 6): 5
No. of mice in each day (Swiss mice; 5mg/kg intra-peritoneally on days 1-4, group of 5, day 1): 5
No. of mice in each day (Swiss mice; 5mg/kg intra-peritoneally on days 1-4, group of 5, day 2): 5
No. of mice in each day (Swiss mice; 5mg/kg intra-peritoneally on days 1-4, group of 5, day 3): 5
No. of mice in each day (Swiss mice; 5mg/kg intra-peritoneally on days 1-4, group of 5, day 4): 5
No. of mice in each day (Swiss mice; 5mg/kg intra-peritoneally on days 1-4, group of 5, day 5): 5
No. of mice in each day (Swiss mice; 5mg/kg intra-peritoneally on days 1-4, group of 5, day 6): 5

Compound: CCCCCCNc1ccc([C@@H](O)[C@H](CO)NCCCCCC)cc1 [AD-2663, (2S,3R)-2-N-aminohexyl-1-(4-N-hexylamiuophenyl)-1,3-propanediol]
pIC50 [5]: 5.15

Compound: CCCCCCCCCCCC(=O)Nc1ccc([C@H](O)[C@@H](N)CO)cc1 [AD-2674]
inhibition of Bod3-SPM (fluorescent image) (Bod3-SPM [3]; Fig. 6): low inhibition of Bod3-SPM
reduction of the level of Bod3-GC (fluorescent image) (Bod3-GC): much stronger reduction of the level of Bod3-GC

Compound: (2R, 3S)-2-BOC-amino-1-[4-N-(dodecanoyl-12-N-BOC-amine)-phenyl)-1,3-propanediol [AD-2620]
pIC50 (HL60 cells [2]): 5.52

Now from value to compound, other results behind:

pIC50 (MCF7-AdrR): 5.15
pIC50 (MCF7-NCi): 5.52
pIC50 (Bod3-SPM [3]): 5.40
pIC50 (Bod 3-SPM): 5.15
pIC50 (Bod 3-GC): 5.00
Compound: CCCCCCNc1ccc([C@@H](O)[C@@H](CO)NCCCCCC)cc1 [AD-2665, (2R,3R)-2-(N-hexylamine)-1-(4-N-hexylaminophenyl)-1,3-propanediol]
fold induction at 5 µM (U937 cells): 2.8

pIC50 (Bod3-SPM [3]): 5.40
Compound: CCCCCCCCCCCCCCN[C@H](CO)[C@H](O)c1ccc(N)cc1 [AD-2672, (2R,3R)-2-(N-tetradecylamine)-1-(4-aminophenyl)-1,3-propanediol]
fold induction at 5 µM (U937 cells): 6
level of Bod3-SPM (fluorescent image) (Bod3-SPM [3]; HL60, 5 and 10 µM, Fig. 6): strongly reduces the level of Bod3-SPM

pIC50 (HL60 cells [2]; Homo sapiens, HL-60, 48 h): 5.12
pIC50 (Bod3-SPM [3]): 5.22
Compound: CCCCCCCCCCCC(=O)Nc1ccc([C@@H](O)[C@H](N)CO)cc1 [AD-2673]
inhibition of Bod3-SPM (fluorescent image) (Bod3-SPM [3]; Fig. 6): low inhibition of Bod3-SPM
reduction of the level of Bod3-GC (fluorescent image) (Bod3-GC): much stronger reduction of the level of Bod3-GC
